1 compound from PMC12254823 (Acta Pharmaceutica Sinica. B, 2025) can be followed below.

Several values for one entry are separate records, joined by “and”; a condition that tells them apart may be missing. Equal entries are not always repeated.

Assay [1] concerns the target H1 PA-PB1 heterodimeric complex (Influenza A virus, UniProt P15659). The assay is classed as biochemical.
Assay [2] has as its target PA-C K643A (Influenza A virus, UniProt P15659, K643A). The assay is classed as binding, influenza A virus (H1).

Take `COc1ccc(NC(=S)NCc2cccc3cn[nH]c23)cc1OC` [Compound 24, 1-[(1H-Indazol-7-yl)methyl]-3-(3,4-dimethoxyphenyl)thiourea]: in assay [1], the “PA-PB1 complex co-immunoprecipitated compared to DMSO control” value is 53.5% ± 7.9% and 53.5%. In addition, the “Melting temperature (Tm)” value in assay [2] came out at 50.2 ± 1.9 °C.
